Source: publication PMC8472139, “Neuroprotective Effect of a Novel ATP-Synthase Inhibitor Bedaquiline in Cerebral Ischemia-Reperfusion Injury” (International Journal of Molecular Sciences, 2021)

Biological target: T1, F1F0-ATP synthase (ATPase, complex V) (Rattus norvegicus, UniProt P05504+Q06645)
T1 construct: gene Atp5mc1; native complex from brain mitochondria (male Wistar rat), immunocaptured in microplate wells (Abcam ab109714 kit); mature c subunit is identical from Atp5mc1/Atp5mc2/Atp5mc3; with ATP synthase F(1) complex subunit alpha, mitochondrial; ATP synthase F(1) complex catalytic subunit beta, mitochondrial; ATP synthase F(1) complex subunit gamma, mitochondrial; ATP synthase F(1) complex subunit delta, mitochondrial; ATP synthase F(1) complex subunit epsilon, mitochondrial; ATP synthase peripheral stalk subunit OSCP, mitochondrial; ATP synthase peripheral stalk-membrane subunit b, mitochondrial
Assay: ATP hydrolysis coupled to NADH oxidation, absorbance […] nm, immunocapture kit
Assay type: biochemical

In the case of `COc1nc2ccc(Br)cc2cc1[C@@H](c1ccccc1)[C@@](O)(CCN(C)C)c1cccc2ccccc12` [BDQ, Bedaquiline], the inhibition at 5 µM is reported as about 50%.
